ChEMBL document CHEMBL4402590, “Small-Molecule Antagonist Targeting Exportin-1 via Rational Structure-Based Discovery” (J Med Chem, 2020)
One block for each compound: values may come before it. Calls of active or inactive are those of the source. The rule behind the calls is not given here.

Experiments:
Mus musculus [1] = assay: Anti-inflammatory activity against DSS-induced ulcerative colitis C57BL/6J mouse model assessed as reduction in IL-23 production at 10 mg/kg, po administered for 7 days and measured on day 7 by ELISA; format: functional, organism-based
Exportin-1 [2] = target: T1, Exportin-1 (Homo sapiens, UniProt O14980); assay: Reversible inhibition of CRM1 in human 293T cells assessed as increase in translocation of NES-GFP to […] at 4 uM incubated for 2 hrs by confocal laser scanning microscopy; format: cell-based
T1 sequence (O14980 whole entry): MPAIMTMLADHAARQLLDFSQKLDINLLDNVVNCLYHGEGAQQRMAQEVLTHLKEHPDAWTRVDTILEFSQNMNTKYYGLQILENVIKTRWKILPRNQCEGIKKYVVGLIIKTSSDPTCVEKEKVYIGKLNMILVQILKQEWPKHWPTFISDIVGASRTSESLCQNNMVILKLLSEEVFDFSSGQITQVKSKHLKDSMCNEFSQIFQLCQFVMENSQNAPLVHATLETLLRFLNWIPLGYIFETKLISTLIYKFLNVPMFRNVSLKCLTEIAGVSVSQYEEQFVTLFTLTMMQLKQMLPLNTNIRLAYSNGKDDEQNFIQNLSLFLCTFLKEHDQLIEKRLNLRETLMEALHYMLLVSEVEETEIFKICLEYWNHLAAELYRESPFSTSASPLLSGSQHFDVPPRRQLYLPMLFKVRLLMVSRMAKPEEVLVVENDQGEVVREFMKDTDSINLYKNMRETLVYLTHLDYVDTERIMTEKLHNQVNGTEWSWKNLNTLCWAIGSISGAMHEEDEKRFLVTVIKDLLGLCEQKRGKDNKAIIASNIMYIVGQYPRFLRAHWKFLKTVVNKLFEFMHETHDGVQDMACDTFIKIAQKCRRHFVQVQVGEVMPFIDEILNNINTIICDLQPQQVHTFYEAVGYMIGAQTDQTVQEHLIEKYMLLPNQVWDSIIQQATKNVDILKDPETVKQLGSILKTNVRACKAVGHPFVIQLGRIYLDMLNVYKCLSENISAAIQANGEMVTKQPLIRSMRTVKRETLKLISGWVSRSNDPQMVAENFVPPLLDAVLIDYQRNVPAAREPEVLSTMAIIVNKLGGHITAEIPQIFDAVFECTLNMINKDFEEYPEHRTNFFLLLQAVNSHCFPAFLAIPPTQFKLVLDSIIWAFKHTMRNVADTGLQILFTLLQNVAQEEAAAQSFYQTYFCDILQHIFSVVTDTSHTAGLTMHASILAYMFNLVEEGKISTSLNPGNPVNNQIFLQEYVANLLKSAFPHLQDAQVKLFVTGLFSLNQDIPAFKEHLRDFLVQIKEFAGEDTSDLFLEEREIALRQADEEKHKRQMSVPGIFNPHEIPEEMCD

Homo sapiens = species on record: Homo sapiens; assay: Binding affinity to recombinant His-tagged IkBalpha (unknown origin) by SPR analysis
Mus musculus [3] = assay: Anti-inflammatory activity against DSS-induced ulcerative colitis C57BL/6J mouse model assessed as reduction in IL-1beta production at 10 mg/kg, po administered for 7 days and measured on day 7 by ELISA; format: functional, organism-based
[4] = Toxicity in C57BL/6 mouse assessed as effect on spleen at 300 to 600 mg/kg, po administered for 7 days and measured on day 14; format: organism-based; settings: in vivo, 168 h
[5] = target: Kelch-like ECH-associated protein 1 (Homo sapiens) (UniProt Q14145); assay: Binding affinity to recombinant His-tagged Keap1 (unknown origin) by SPR analysis
Sequence of Kelch-like ECH-associated protein 1 (Homo sapiens) (Q14145 whole entry): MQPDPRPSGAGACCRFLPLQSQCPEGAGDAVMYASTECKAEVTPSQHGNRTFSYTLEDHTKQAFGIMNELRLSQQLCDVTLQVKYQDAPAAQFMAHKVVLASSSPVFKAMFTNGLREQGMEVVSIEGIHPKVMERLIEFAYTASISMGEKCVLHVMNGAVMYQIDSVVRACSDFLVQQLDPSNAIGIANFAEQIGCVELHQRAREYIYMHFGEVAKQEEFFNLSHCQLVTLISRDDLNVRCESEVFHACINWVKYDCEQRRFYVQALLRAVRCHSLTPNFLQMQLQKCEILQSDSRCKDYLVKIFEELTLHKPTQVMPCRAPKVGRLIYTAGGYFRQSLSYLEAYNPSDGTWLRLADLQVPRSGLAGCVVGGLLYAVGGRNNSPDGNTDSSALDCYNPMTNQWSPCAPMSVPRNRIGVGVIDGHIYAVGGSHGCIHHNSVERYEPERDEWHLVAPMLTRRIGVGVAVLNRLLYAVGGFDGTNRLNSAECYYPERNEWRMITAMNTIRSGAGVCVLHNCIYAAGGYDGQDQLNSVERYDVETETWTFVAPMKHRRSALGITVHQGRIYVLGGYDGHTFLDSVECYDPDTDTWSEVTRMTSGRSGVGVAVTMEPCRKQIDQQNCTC

Mus musculus [6] = assay: Anti-inflammatory activity against DSS-induced ulcerative colitis C57BL/6J mouse model assessed as reduction in colon ulceration at 3 and 30 mg/kg, po administered for 7 days and measured on day 7 by […] and eosin staining based microscopic analysis; format: functional, organism-based
Exportin-1 [7] = target: T1, Exportin-1; assay: Binding affinity to recombinant His-tagged CRM1 (unknown origin) by SPR analysis
[8] = Permeability in human Caco2 cells at 10 uM incubated for 4 hrs by LC-MS/MS analysis; format: ADME, cell-based; settings: caco-2, 4 h
Mus musculus [9] = assay: Anti-inflammatory activity against DSS-induced ulcerative colitis C57BL/6J mouse model assessed as reduction in TNFalpha production at 10 mg/kg, po administered for 7 days and measured on day 7 by ELISA; format: functional, organism-based
Mus musculus [10] = assay: Anti-inflammatory activity against DSS-induced ulcerative colitis C57BL/6J mouse model assessed as reduction in impairment of immune response genes at 30 mg/kg, po administered for 7 days and measured on day 7 by proteomic analysis; format: functional, organism-based
[11] = target: Voltage-gated inwardly rectifying potassium channel KCNH2 (Homo sapiens, UniProt Q12809); assay: Inhibition of human ERG expressed in human HEK293 cells by whole cell patch clamp assay; format: cell-based
Sequence of Voltage-gated inwardly rectifying potassium channel KCNH2 (Q12809 whole entry): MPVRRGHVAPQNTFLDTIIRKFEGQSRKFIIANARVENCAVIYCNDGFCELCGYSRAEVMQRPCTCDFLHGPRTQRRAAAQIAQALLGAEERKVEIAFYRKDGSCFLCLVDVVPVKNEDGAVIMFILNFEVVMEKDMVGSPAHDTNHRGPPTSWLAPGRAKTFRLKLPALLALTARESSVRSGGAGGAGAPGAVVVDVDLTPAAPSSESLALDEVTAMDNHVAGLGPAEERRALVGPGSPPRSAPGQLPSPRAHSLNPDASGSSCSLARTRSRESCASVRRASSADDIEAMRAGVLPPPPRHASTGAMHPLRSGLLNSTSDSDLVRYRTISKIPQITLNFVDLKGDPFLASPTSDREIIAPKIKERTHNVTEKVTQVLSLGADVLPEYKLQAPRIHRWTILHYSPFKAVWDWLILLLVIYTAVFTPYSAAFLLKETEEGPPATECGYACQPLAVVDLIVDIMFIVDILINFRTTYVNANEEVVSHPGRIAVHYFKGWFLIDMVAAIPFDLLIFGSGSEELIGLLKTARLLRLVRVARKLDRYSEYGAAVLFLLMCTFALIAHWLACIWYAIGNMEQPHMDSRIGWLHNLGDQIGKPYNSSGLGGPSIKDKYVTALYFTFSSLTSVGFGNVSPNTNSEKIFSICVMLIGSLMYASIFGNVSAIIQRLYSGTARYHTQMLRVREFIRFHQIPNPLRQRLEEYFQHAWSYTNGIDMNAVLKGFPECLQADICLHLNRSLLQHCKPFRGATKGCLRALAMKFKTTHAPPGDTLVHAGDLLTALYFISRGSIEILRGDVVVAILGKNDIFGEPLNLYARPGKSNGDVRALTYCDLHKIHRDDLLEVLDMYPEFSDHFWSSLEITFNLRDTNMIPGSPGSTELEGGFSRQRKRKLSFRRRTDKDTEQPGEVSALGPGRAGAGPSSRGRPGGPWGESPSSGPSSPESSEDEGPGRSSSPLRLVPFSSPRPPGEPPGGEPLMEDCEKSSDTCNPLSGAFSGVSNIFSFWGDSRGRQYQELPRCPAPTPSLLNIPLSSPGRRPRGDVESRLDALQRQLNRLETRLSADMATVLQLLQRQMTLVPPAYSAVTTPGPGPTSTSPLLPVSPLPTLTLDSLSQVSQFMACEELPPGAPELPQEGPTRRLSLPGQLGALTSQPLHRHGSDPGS

Mus musculus [12] = assay: In vivo inhibition of NFkappaB in C57BL/6J mouse DSS-induced ulcerative colitis model assessed as reduction in NFkappaB p65 expression at 10 and 30 mg/kg, po administered for 7 days and measured on day 7 by Western blot analysis; format: functional, organism-based
Mus musculus [13] = assay: Anti-inflammatory activity against DSS-induced ulcerative colitis C57BL/6J mouse model assessed as reduction in impairment of inflammatory response genes at 30 mg/kg, po administered for 7 days and measured on day 7 by proteomic analysis; format: functional, organism-based
Mus musculus [14] = assay: In vivo inhibition of NFkappaB in C57BL/6J mouse DSS-induced ulcerative colitis model assessed as reduction in NQO1 expression at 10 and 30 mg/kg, po administered for 7 days and measured on day 7 by Western blot analysis; format: functional, organism-based
Mus musculus [15] = assay: Anti-inflammatory activity against DSS-induced ulcerative colitis C57BL/6J mouse model assessed as reduction in colitis orally administered for 7 days and measured on day 7 by […] and eosin staining based microscopic analysis; format: functional, organism-based
Mus musculus [16] = assay: In vivo inhibition of NFkappaB in C57BL/6J mouse DSS-induced ulcerative colitis model assessed as downregulation of MRP14 expression at 10 and 30 mg/kg, po administered for 7 days and measured on day 7 by Western blot analysis; format: functional, organism-based
Mus musculus [17] = assay: In vivo inhibition of NFkappaB in C57BL/6J mouse DSS-induced ulcerative colitis model assessed as restoration of occludin expression at 10 and 30 mg/kg, po administered for 7 days and measured on day 7 by Western blot analysis; format: functional, organism-based
Mus musculus [18] = assay: Anti-inflammatory activity against DSS-induced ulcerative colitis C57BL/6J mouse model assessed as reduction in impairment of NF-kappaB signalling genes at 30 mg/kg, po administered for 7 days and measured on day 7 by proteomic analysis; format: functional, organism-based
Mus musculus [19] = assay: In vivo inhibition of NFkappaB in C57BL/6J mouse DSS-induced ulcerative colitis model assessed as downregulation of MRP8 expression at 10 and 30 mg/kg, po administered for 7 days and measured on day 7 by Western blot analysis; format: functional, organism-based
Mus musculus [20] = assay: Anti-inflammatory activity against DSS-induced ulcerative colitis C57BL/6J mouse model assessed as restoration of colon length at 10 mg/kg, po administered for 7 days and measured on day 7; format: functional, organism-based
Mus musculus [21] = assay: Anti-inflammatory activity against DSS-induced ulcerative colitis C57BL/6J mouse model assessed as reduction in IL-6 production at 10 mg/kg, po administered for 7 days and measured on day 7 by ELISA; format: functional, organism-based
[22] = Cytotoxicity activity against human SNK6 cells assessed as GSH:GSSG ratio at 1 uM incubated for 48 hrs by GSH and GSSG assay kit method; format: cell-based
Mus musculus [23] = assay: Anti-inflammatory activity against DSS-induced ulcerative colitis C57BL/6J mouse model assessed as reduction in colon swelling at 3 and 30 mg/kg, po administered for 7 days and measured on day 7 by […] and eosin staining based microscopic analysis; format: functional, organism-based
Mus musculus [24] = assay: Anti-inflammatory activity against DSS-induced ulcerative colitis C57BL/6J mouse model assessed as re-epithelialization of colon at 3 and 30 mg/kg, po administered for 7 days and measured on day 7 by […] and eosin staining based microscopic analysis; format: functional, organism-based
Mus musculus [25] = assay: Anti-inflammatory activity against DSS-induced ulcerative colitis C57BL/6J mouse model assessed as reduction in impairment of wound healing genes at 30 mg/kg, po administered for 7 days and measured on day 7 by proteomic analysis; format: functional, organism-based
Mus musculus [26] = assay: Anti-inflammatory activity against DSS-induced ulcerative colitis C57BL/6J mouse model assessed as reduction in impairment of T-cell receptor signalling genes at 30 mg/kg, po administered for 7 days and measured on day 7 by proteomic analysis; format: functional, organism-based
[27] = Acute toxicity in C57BL/6 mouse assessed as sickness indication at 300 to 600 mg/kg, po administered for 7 days and measured on day 7; format: organism-based; settings: in vivo, 168 h
[28] = Toxicity in C57BL/6 mouse assessed as effect on colon at 300 to 600 mg/kg, po administered for 7 days and measured on day 14; format: organism-based; settings: in vivo, 168 h
Mus musculus [29] = assay: Anti-inflammatory activity against DSS-induced ulcerative colitis C57BL/6J mouse model assessed as reduction in colon inflammation at 10 mg/kg, po administered for 7 days and measured on day 7; format: functional, organism-based
Mus musculus [30] = assay: Anti-inflammatory activity against DSS-induced ulcerative colitis C57BL/6J mouse model assessed as reduction in colon inflammation at 3 and 30 mg/kg, po administered for 7 days and measured on day 7 by […] and eosin staining based microscopic analysis; format: functional, organism-based
Mus musculus [31] = assay: Anti-inflammatory activity against DSS-induced ulcerative colitis C57BL/6J mouse model assessed as reduction in impairment of epithelial barrier genes at 30 mg/kg, po administered for 7 days and measured on day 7 by proteomic analysis; format: functional, organism-based
Mus musculus [32] = assay: Anti-inflammatory activity against DSS-induced ulcerative colitis C57BL/6J mouse model assessed as preservation of colon mucosal architecture at 3 and 30 mg/kg, po administered for 7 days and measured on day 7 by […] and eosin staining based microscopic analysis; format: functional, organism-based
Mus musculus [33] = assay: Anti-inflammatory activity against DSS-induced ulcerative colitis C57BL/6J mouse model assessed as reduction in diarrhea at 3 and 30 mg/kg, po administered for 7 days and measured daily; format: functional, organism-based
[34] = Stability of compound in artificial intestinal juice assessed as half life; format: ADME
Mus musculus [35] = assay: Anti-inflammatory activity against DSS-induced ulcerative colitis C57BL/6J mouse model assessed as reduction in COX-2 production at 10 mg/kg, po administered for 7 days and measured on day 7 by ELISA; format: functional, organism-based
HCT-15 = assay: Antiproliferative activity against CRM1 siRNA […] human HCT15 cells assessed as reduction in cell viability incubated for 24 hrs; format: functional, cell-based; settings: HCT-15, 24 h
Mus musculus [36] = assay: Anti-inflammatory activity against DSS-induced ulcerative colitis C57BL/6J mouse model assessed as reduction in body weight loss at 3 and 30 mg/kg, po administered for 7 days and measured daily; format: functional, organism-based
Mus musculus [37] = assay: Anti-inflammatory activity against DSS-induced ulcerative colitis C57BL/6J mouse model assessed as restoration of damaged colon mucosal layer at 10 mg/kg, po administered for 7 days and measured on day 7 by ELISA; format: functional, organism-based
Mus musculus [38] = assay: Anti-inflammatory activity against DSS-induced ulcerative colitis C57BL/6J mouse model assessed as reduction in body weight loss at 10 mg/kg, po administered for 7 days and measured daily; format: functional, organism-based
Mus musculus [39] = assay: In vivo inhibition of NFkappaB in C57BL/6J mouse DSS-induced ulcerative colitis model assessed as increase in Nrf2 expression at 10 and 30 mg/kg, po administered for 7 days and measured on day 7 by Western blot analysis; format: functional, organism-based
Mus musculus [40] = assay: Anti-inflammatory activity against DSS-induced ulcerative colitis C57BL/6J mouse model assessed as reduction in colon ulceration at 10 mg/kg, po administered for 7 days and measured on day 7; format: functional, organism-based
Mus musculus [41] = assay: Anti-inflammatory activity against DSS-induced ulcerative colitis C57BL/6J mouse model assessed as reduction in diarrhea at 10 mg/kg, po administered for 7 days and measured daily; format: functional, organism-based
Mus musculus [42] = assay: Anti-inflammatory activity against DSS-induced ulcerative colitis C57BL/6J mouse model assessed as reduction in impairment of cell-cell adhesion genes at 30 mg/kg, po administered for 7 days and measured on day 7 by proteomic analysis; format: functional, organism-based
Mus musculus [43] = assay: Anti-inflammatory activity against DSS-induced ulcerative colitis C57BL/6J mouse model assessed as reduction in colon swelling at 10 mg/kg, po administered for 7 days and measured on day 7; format: functional, organism-based
Mus musculus [44] = assay: In vivo inhibition of NFkappaB in C57BL/6J mouse DSS-induced ulcerative colitis model assessed as increase in HO1 expression at 10 and 30 mg/kg, po administered for 7 days and measured on day 7 by Western blot analysis; format: functional, organism-based
Mus musculus [45] = assay: In vivo inhibition of NFkappaB in C57BL/6J mouse DSS-induced ulcerative colitis model assessed as increase in accumulation of IkBalpha in nucleus at 400 nM, po by confocal microscopy; format: functional, organism-based
Mus musculus [46] = assay: Anti-inflammatory activity against DSS-induced ulcerative colitis C57BL/6J mouse model assessed as reduction in colon shortening at 3 and 30 mg/kg, po administered for 7 days and measured daily; format: functional, organism-based
Mus musculus [47] = assay: Anti-inflammatory activity against DSS-induced ulcerative colitis C57BL/6J mouse model assessed as reduction in impairment of host defense genes at 30 mg/kg, po administered for 7 days and measured on day 7 by proteomic analysis; format: functional, organism-based
Mus musculus [48] = assay: In vivo inhibition of NFkappaB in C57BL/6J mouse DSS-induced ulcerative colitis model assessed as increase in accumulation of NRF2 in nucleus at 400 nM, po by confocal microscopy; format: functional, organism-based
[49] = Stability of compound in artificial gastric juice assessed as half life; format: ADME
[50] = Acute toxicity in C57BL/6 mouse assessed as weight loss at 300 to 600 mg/kg, po administered for 7 days and measured on day 7; format: organism-based; settings: in vivo, 168 h
[51] = Acute toxicity in C57BL/6 mouse assessed as lethargy at 300 to 600 mg/kg, po administered for 7 days and measured on day 7; format: organism-based; settings: in vivo, 168 h

SMILES: [O-][S@@+](/C=C/CCN=C=S)c1cc(C(F)(F)F)cc(C(F)(F)F)c1
Activity (Mus musculus [1]): Active
inhibition (Exportin-1 [2]): 100%
Activity (Homo sapiens): inactive
Activity (Mus musculus [3]): Active
Activity [4]: Non-Toxic
Activity [5]: inactive
Activity (Mus musculus [6]): Active
Kd (Exportin-1 [7]): 0.0269 µM
permeability [8]: Permeable
Activity (Mus musculus [9]): Active
Activity (Mus musculus [10]): Active
IC50 [11]: > 30 µM
inhibition (Mus musculus [12]): Active
Activity (Mus musculus [13]): Active
inhibition (Mus musculus [14]): Active
Activity (Mus musculus [15]): Dose-dependent effect
inhibition (Mus musculus [16]): Active
inhibition (Mus musculus [17]): Active
Activity (Mus musculus [18]): Active
inhibition (Mus musculus [19]): Active
Activity (Mus musculus [20]): Active
Activity (Mus musculus [21]): Active
Activity [22]: Non-Toxic
Activity (Mus musculus [23]): Active
Activity (Mus musculus [24]): Active
Activity (Mus musculus [25]): Active
Activity (Mus musculus [26]): Active
Activity [27]: Non-Toxic
Activity [28]: Non-Toxic
Activity (Mus musculus [29]): Active
Activity (Mus musculus [30]): Active
Activity (Mus musculus [31]): Active
Activity (Mus musculus [32]): Active
Activity (Mus musculus [33]): Active
half-life [34]: 8 h
Activity (Mus musculus [35]): Active
IC50 (HCT-15): 14.7 µM
Activity (Mus musculus [36]): Active
Activity (Mus musculus [37]): Active
Activity (Mus musculus [38]): Active
inhibition (Mus musculus [39]): Active
Activity (Mus musculus [40]): Active
Activity (Mus musculus [41]): Active
Activity (Mus musculus [42]): Active
Activity (Mus musculus [43]): Active
inhibition (Mus musculus [44]): Active
inhibition (Mus musculus [45]): Active
Activity (Mus musculus [46]): Active
Activity (Mus musculus [47]): Active
inhibition (Mus musculus [48]): Active
half-life [49]: 24 h
Activity [50]: Non-Toxic
Activity [51]: Non-Toxic

inhibition (Exportin-1 [2]): inactive
SMILES: O=C(/C=C\n1cnc(-c2cc(C(F)(F)F)cc(C(F)(F)F)c2)n1)NNc1cnccn1
